This is an account of results in patent publication US9169270B2, “1-phenyl-substituted heterocyclyl derivatives and their use as prostaglandin D2 receptor modulators” (Actelion Pharmaceuticals Ltd., priority 2012, dated 2015).

hCRTH2 receptor, sequence (Q9Y5Y4 whole entry, the tested form may be a part): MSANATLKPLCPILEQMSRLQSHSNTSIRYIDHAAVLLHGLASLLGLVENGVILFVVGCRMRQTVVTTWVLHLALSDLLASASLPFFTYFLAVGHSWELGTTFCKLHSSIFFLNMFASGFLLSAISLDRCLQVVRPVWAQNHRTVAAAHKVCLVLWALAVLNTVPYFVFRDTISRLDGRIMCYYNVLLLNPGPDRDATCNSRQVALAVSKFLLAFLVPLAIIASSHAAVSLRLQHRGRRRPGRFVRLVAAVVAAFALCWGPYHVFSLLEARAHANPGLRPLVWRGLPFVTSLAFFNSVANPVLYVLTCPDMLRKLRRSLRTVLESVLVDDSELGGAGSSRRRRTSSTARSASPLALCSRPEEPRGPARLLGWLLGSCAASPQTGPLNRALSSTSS

The target in the experiment is hCRTH2 receptor (Homo sapiens (Human), UniProt Q9Y5Y4). Put plainly: hCRTH2 receptor membranes radioligand (3H-PGD2) displacement assay. Conditions: hCRTH2 membrane fragments, Binding-Buffer with 0.1% BSA. The protocol: Biological Assays: Preparation of hCRTH2 Receptor Membranes and Radioligand Displacement Assay:
First, recombinant HEK293-hCRTH2 cells were detached from culture plates into 5 ml buffer A/plate (Buffer A: 5 mM Tris, 1 mM MgCl2-6H2O pH=7.4) using a rubber policeman. Cells were then transferred into centrifugation tubes and centrifuged for 5 min at 400 g. The cell pellet was resuspended in the same buffer and tubes were frozen at −80° C. Cells were thawed and membrane fragments were generated by homogenization using a polytron homogenizer (30 seconds). The membrane fragments were then centrifuged at 3000 g for 20 minutes and resuspended in buffer C (Buffer C: 75 mM Tris, 25 mM MgCl2, 250 mM Saccharose pH 7.4). Aliquots of membrane fragments were stored at −20° C.
Binding assay was performed in a final assay volume of 250 μl. First, 25 μl of test compound, previously diluted in Binding-Buffer (Binding-Buffer: 50 mM Tris-Base, 100 mM NaCl, 1 mM EDTA, 0.1% BSA (protease free), 0.01% NaN3, 10 mM MnCl2, pH 7.0) was placed into each well. […] Binding assay was started by addition of 100 μl CRTH2 membrane fragments, reaching a final concentration of 20 μg/well. For non-specific binding, PGD2 was added to the reaction mixture to […] final concentration. This assay mix was incubated for 90 minutes at room temperature and then filtered through a GF/C filter 96-well plate which was pre-soaked for 3 hours in 0.5% polyethyleneimine (PEI). The filter-wells were washed three times with ice cold Binding-Buffer. Then, 40 μl of Microscint-40 (Packard) was added to each well and the retained radioactivity quantified in a Topcount (Packard).
Compound `O=C(O)COc1ccc(Cl)cc1C1c2scnc2CCN1C(=O)Cc1n[nH]c2ccccc12` (racemic) [Example 44, (±)-{4-Chloro-2-[5-(2-1H-indazol-3-yl-acetyl)-4,5,6,7-tetrahydro-thiazolo[5,4-c]pyridin-4-yl]-phenoxy}-acetic acid] gave an IC50 of 48.1 nM. Regarding `O=C(O)COc1ccc(Cl)cc1C1c2scnc2CCN1C(=O)/C=C/c1ccccc1` (racemic) [Example 45, (±)-(4-Chloro-2-{5-[(E)-(3-phenyl-acryloyl)]-4,5,6,7-tetrahydro-thiazolo[5,4-c]pyridin-4-yl}-phenoxy)-acetic acid], the IC50 was found to be 59.6 nM. The compound `O=C(O)COc1ccc(Cl)cc1C1c2scnc2CCN1C(=O)CC1Cc2ccccc2C1` (racemic) [Example 46, (±)-{4-Chloro-2-[5-(2-indan-2-yl-acetyl)-4,5,6,7-tetrahydro-thiazolo[5,4-c]pyridin-4-yl]-phenoxy}-acetic acid] returned an IC50 of 6.2 nM. The same measure for `CC1(C)CC1C(=O)N1CCc2ncsc2C1c1cc(Cl)ccc1OCC(=O)O` (racemic) [Example 47, (±)-{4-Chloro-2-[(±)-5-(2,2-dimethyl-cyclopropanecarbonyl)-4,5,6,7-tetrahydro-thiazolo[5,4-c]pyridin-4-yl]-phenoxy}-acetic acid]: 37.1 nM. The same measure for `O=C(O)COc1ccc(Cl)cc1C1c2scnc2CCN1C(=O)CC1CCCCC1` (racemic) [Example 48, (±)-{4-Chloro-2-[5-(2-cyclohexyl-acetyl)-4,5,6,7-tetrahydro-thiazolo[5,4-c]pyridin-4-yl]-phenoxy}-acetic acid]: 73 nM; for `O=C(O)COc1ccc(Cl)cc1C1c2scnc2CCN1C(=O)Cc1ccc2ccccc2c1` (racemic) [Example 49, (±)-{4-Chloro-2-[5-(2-naphthalen-2-yl-acetyl)-4,5,6,7-tetrahydro-thiazolo[5,4-c]pyridin-4-yl]-phenoxy}-acetic acid]: 15.8 nM; for `O=C(O)COc1ccc(Cl)cc1C1c2scnc2CCN1C(=O)Cc1cccc2ccccc12` (racemic) [Example 50, (±)-{4-Chloro-2-[5-(2-naphthalen-1-yl-acetyl)-4,5,6,7-tetrahydro-thiazolo[5,4-c]pyridin-4-yl]-phenoxy}-acetic acid]: 12.6 nM. Compound `O=C(O)COc1ccc(Cl)cc1C1c2scnc2CCN1C(=O)CCCc1ccc(F)cc1` (racemic) [Example 51, (±)-(4-Chloro-2-{5-[4-(4-fluoro-phenyl)-butyryl]-4,5,6,7-tetrahydro-thiazolo[5,4-c]pyridin-4-yl}-phenoxy)-acetic acid] registered an IC50 of 9.7 nM. Consider `O=C(O)COc1ccc(Cl)cc1C1c2scnc2CCN1C(=O)CCN1CCc2ccccc21` (racemic) [Example 52, (±)-{4-Chloro-2-[5-(3-2,3-dihydro-indol-1-yl-propionyl)-4,5,6,7-tetrahydro-thiazolo[5,4-c]pyridin-4-yl]-phenoxy}-acetic acid], for which the IC50 came to 17.7 nM. The same measure for `COc1ccc(/C=C/C(=O)N2CCc3ncsc3C2c2cc(Cl)ccc2OCC(=O)O)cc1` (racemic) [Example 54, (±)-(4-Chloro-2-{5-[(E)-3-(4-methoxy-phenyl)-acryloyl]-4,5,6,7-tetrahydro-thiazolo[5,4-c]pyridin-4-yl}-phenoxy)-acetic acid]: 41.2 nM. The same measure for `Cc1ccc(/C=C/C(=O)N2CCc3ncsc3C2c2cc(Cl)ccc2OCC(=O)O)cc1` (racemic) [Example 56, (±)-{4-Chloro-2-[5-((E)-3-p-tolyl-acryloyl)-4,5,6,7-tetrahydro-thiazolo[5,4-c]pyridin-4-yl]-phenoxy}-acetic acid]: 71.9 nM; for `O=C(O)COc1ccc(Cl)cc1C1c2scnc2CCN1C(=O)/C=C/c1ccc(F)cc1F` (racemic) [Example 57, (±)-(4-Chloro-2-{5-[(E)-3-(2,4-difluoro-phenyl)-acryloyl]-4,5,6,7-tetrahydro-thiazolo[5,4-c]pyridin-4-yl}-phenoxy)-acetic acid]: 3.5 nM; for `CCC(C)COC(=O)N1CCc2ncsc2[C@H]1c1cc(Cl)ccc1OCC(=O)O` (mixture of isomers) [Example 70, (R)-4-(2-Carboxymethoxy-5-chloro-phenyl)-6,7-dihydro-4H-thiazolo[5,4-c]pyridine-5-carboxylic acid (±)-2-methyl-butyl ester]: 2.8 nM. The same measure for `O=C(O)COc1ccc(Cl)cc1C1c2scnc2CCN1C(=O)OCCc1cccc(F)c1` (racemic) [Example 77, (±)-4-(2-Carboxymethoxy-5-chloro-phenyl)-6,7-dihydro-4H-thiazolo[5,4-c]pyridine-5-carboxylic acid 2-(3-fluoro-phenyl)-ethyl ester]: 2.3 nM; for `O=C(O)COc1ccc(Cl)cc1C1c2scnc2CCN1C(=O)OCc1ccccc1F` (racemic) [Example 79, (±)-4-(2-Carboxymethoxy-5-chloro-phenyl)-6,7-dihydro-4H-thiazolo[5,4-c]pyridine-5-carboxylic acid 2-fluoro-benzyl ester]: 3 nM; for `O=C(O)COc1ccc(Cl)cc1C1c2scnc2CCN1C(=O)OCc1ccc(F)cc1` (racemic) [Example 80, (±)-4-(2-Carboxymethoxy-5-chloro-phenyl)-6,7-dihydro-4H-thiazolo[5,4-c]pyridine-5-carboxylic acid 4-fluoro-benzyl ester]: 1.9 nM. For the compound `O=C(O)COc1ccc(Cl)cc1C1c2scnc2CCN1C(=O)OCc1cccc(Cl)c1Cl` (racemic) [Example 81, (±)-4-(2-Carboxymethoxy-5-chloro-phenyl)-6,7-dihydro-4H-thiazolo[5,4-c]pyridine-5-carboxylic acid 2,3-dichloro-benzyl ester], the IC50 turned out to be 1.2 nM.

Consider `O=C(O)COc1ccc(Cl)cc1C1c2scnc2CCN1C(=O)OCc1cccc(F)c1F` (racemic) [Example 82, (±)-4-(2-Carboxymethoxy-5-chloro-phenyl)-6,7-dihydro-4H-thiazolo[5,4-c]pyridine-5-carboxylic acid 2,3-difluoro-benzyl ester], for which the IC50 is 8.5 nM. `O=C(O)COc1ccc(Cl)cc1C1c2scnc2CCN1C(=O)OCc1ccccc1Cl` (racemic) [Example 84, (±)-4-(2-Carboxymethoxy-5-chloro-phenyl)-6,7-dihydro-4H-thiazolo[5,4-c]pyridine-5-carboxylic acid 2-chloro-benzyl ester] registered an IC50 of 3.5 nM. For `O=C(O)COc1ccc(Cl)cc1C1c2scnc2CCN1C(=O)OCc1ccc(Cl)cc1` (racemic) [Example 86, (±)-4-(2-Carboxymethoxy-5-chloro-phenyl)-6,7-dihydro-4H-thiazolo[5,4-c]pyridine-5-carboxylic acid 4-chloro-benzyl ester] the value was 1.7 nM; for `O=C(O)COc1ccc(Cl)cc1C1c2scnc2CCN1C(=O)OCCc1ccccc1` (racemic) [Example 88, (±)-4-(2-Carboxymethoxy-5-chloro-phenyl)-6,7-dihydro-4H-thiazolo[5,4-c]pyridine-5-carboxylic acid phenethyl ester], 6.4 nM; for `O=C(O)COc1ccc(Cl)cc1C1c2scnc2CCN1C(=O)OCn1ncc2ccccc21` (racemic) [Example 90, (±)-4-(2-Carboxymethoxy-5-chloro-phenyl)-6,7-dihydro-4H-thiazolo[5,4-c]pyridine-5-carboxylic acid indazol-1-ylmethyl ester], 1.6 nM. Consider `CCn1nc(C)cc1CCOC(=O)N1CCc2ncsc2C1c1cc(Cl)ccc1OCC(=O)O` (racemic) [Example 91, (±)-4-(2-Carboxymethoxy-5-chloro-phenyl)-6,7-dihydro-4H-thiazolo[5,4-c]pyridine-5-carboxylic acid 2-(2-ethyl-5-methyl-2H-pyrazol-3-yl)-ethyl ester], for which the IC50 came out at 3.7 nM.

The compound `O=C(O)COc1ccc(Cl)cc1C1c2scnc2CCN1C(=O)OCc1cc(F)ccc1Cl` (racemic) [Example 92, (±)-4-(2-Carboxymethoxy-5-chloro-phenyl)-6,7-dihydro-4H-thiazolo[5,4-c]pyridine-5-carboxylic acid 2-chloro-5-fluoro-benzyl ester] yielded an IC50 of 2.2 nM. For `O=C(O)COc1ccc(Cl)cc1C1c2scnc2CCN1C(=O)OCc1cc(F)ccc1F` (racemic) [Example 93, (±)-4-(2-Carboxymethoxy-5-chloro-phenyl)-6,7-dihydro-4H-thiazolo[5,4-c]pyridine-5-carboxylic acid 2,5-difluoro-benzyl ester] the value was 1.3 nM.

In the case of `O=C(O)COc1ccc(Cl)cc1C1c2scnc2CCN1C(=O)OCc1ccc(Cl)cc1Cl` (racemic) [Example 94, (±)-4-(2-Carboxymethoxy-5-chloro-phenyl)-6,7-dihydro-4H-thiazolo[5,4-c]pyridine-5-carboxylic acid 2,4-dichloro-benzyl ester], the concentration for half-maximal inhibition (IC50) turned out to be 17.1 nM. For `O=C(O)COc1ccc(Cl)cc1C1c2scnc2CCN1C(=O)OCc1nc2ccccc2o1` (racemic) [Example 97, (±)-4-(2-Carboxymethoxy-5-chloro-phenyl)-6,7-dihydro-4H-thiazolo[5,4-c]pyridine-5-carboxylic acid benzooxazol-2-ylmethyl ester] the value was 5.1 nM.
